The text below walks through data of patent publication US7153822B2, “Compositions and methods for modulating connexin hemichannels” (Wyeth, priority 2002, dated 2006).

One assay has as its system connexin 43 (Cx43). The assay can be described thus: immunoprecipitation and immunoblot of phosphorylated connexin 43. Format: cell-based. The note with it: cultured H9c2 cardiomyocytes. The procedure: H9c2 cells were seeded in 24-multi well dishes in a density of 7,900 cells/cm^2 (˜15,000 cells/well) and grown for 3 days in MEM suplemented with 10% foetal calf serum (FCS) and 1000 units penicillin/1000 μg streptomycin (pen/strep) in an atmosphere of 5% CO2 and 100% humidity at 37° C.
The labelled cells were incubated in Triton X-100 lysis buffer (˜5*10^7 cells/ml) for 1 hr at 4° C. The lysate is centrifuged 30 min at 20,000*g for 30 min. The supernatant was precleared by adding 10 ul Sepharose per 200 μl supernatant. The precleared supernatant were then added 0.5–1 μg phospho-tyrosine or phospho-serine antibodies (Sigma) and incubated for 1.5 hr at 4° C. in an orbital shaker. The antibody-complex was then captured by incubation with 50 μl of a 1:1 slurry of protein G Sepharose for 1.5 hr. Finally the complex were extensively washed with 0.1% (w/v) Triton X-100, 50 mM Tris, pH 7.4, 300 mM NaCl and 5 mM EDTA.
The complexes were loaded onto a 12% SDS gel and blotted onto a PVDF membrane. The membrane is blocked with 0.1% Tween 20, 50 mM Tris, pH 7.4, 300 mM NaCl, 5% dry milk (TBST) for minimum 2 h. The membrane was subsequently incubated with connexin 43 specific antibodies (Zymed) for 1.5 h at RT and developed with ECL+ (Amersham).
(In general: A western blot detects proteins with antibodies after separation by electrophoresis.)

In a further assay the test system is infarcted mice. The experiment in a line: bone marrow cell transplantation after myocardial infarction (design of Orlic et al). Format: in vivo. The following applies: repeated administration during the proliferation process. The text has this:
Myocardial infarction leads to loss of tissue and impairment of cardiac performance. The remaining myocytes are unable to reconstitute the necrotic tissue, and the post-infarcted heart deteriorates with time. Injury to a target organ is sensed by distant stem cells, which migrate to the site of damage and undergo alternate stem cell differentiation; these events promote structural and functional repair. This high degree of stem cell plasticity prompted Orlic et al (Nature 410, 701–705 (2001)) to test whether dead myocardium could be restored by transplanting bone marrow cells in infarcted mice. They sorted lineage-negative (Lin−) bone marrow cells from transgenic mice expressing enhanced green fluorescent protein by fluorescence-activated cell sorting on the basis of c-kit expression. Shortly after coronary ligation, Lin− c-kitPOS cells were injected in the contracting wall bordering the infarct. […] The developing tissue comprised proliferating myocytes and vascular structures. Their studies indicate that locally delivered bone marrow cells can generate de novo myocardium, ameliorating the outcome of coronary artery disease. […]

For the substance Ac-Gly-Asn-Tyr-NH2 [Compound 2], the “tyrosine phosphorylation of connexin 43” value in the assay on connexin 43 (Cx43) is reported as “phosphorylation of Cx43 tyrosine”. Also, the “connexin 43 expression” value with infarcted mice was “increase in connexin 43 expression”.
